Non-standard residues stand in square brackets, D forms with d. Residues, ends and D or L forms follow the SMILES beside them. ξ: configuration not given here. *: point of attachment. ξNMe2Val = CC(C)C(C(=O)*)N(C)C; NMeV = CN[CH](C(=O)O)C(C)C; NHBn = c1ccc(CN*)cc1
Biological target: T1, HCV NS3 helicase NS3h_1b(con1) (Hepatitis C virus genotype 1b, UniProt Q9WMX2)
T1 construct: truncated C-terminally His-tagged NS3 proteins lacking the N-terminal protease, called NS3h; His-tag (C); made in house
Experiment: MBHA screen of NCI mechanistic set library at 20 μM (percent inhibition, compound interference)
Type: biochemical
Settings: compounds at 20 μM; for Inh. (%) (Inhibition): calculated from Equation 1
How it was run: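 Molecular beacon-based DNA unwinding assay; compounds screened at 20 μM in triplicate, with DMSO-only negative and 500 nM dT20 positive controls. Fluorescence (ex 643/em 670 nm) was read before and 30 min after adding ATP to 1 mM. Percent inhibition came from the change relative to DMSO controls; interference from pre-ATP fluorescence versus DMSO controls.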

[1] = MBHA with DNA substrate, assay interference calculated with Equation 2
[2] = assay interference calculated with Equation 2 (fluorescence vs DMSO-only controls before ATP)

T1 sequence (Q9WMX2 1192-1657): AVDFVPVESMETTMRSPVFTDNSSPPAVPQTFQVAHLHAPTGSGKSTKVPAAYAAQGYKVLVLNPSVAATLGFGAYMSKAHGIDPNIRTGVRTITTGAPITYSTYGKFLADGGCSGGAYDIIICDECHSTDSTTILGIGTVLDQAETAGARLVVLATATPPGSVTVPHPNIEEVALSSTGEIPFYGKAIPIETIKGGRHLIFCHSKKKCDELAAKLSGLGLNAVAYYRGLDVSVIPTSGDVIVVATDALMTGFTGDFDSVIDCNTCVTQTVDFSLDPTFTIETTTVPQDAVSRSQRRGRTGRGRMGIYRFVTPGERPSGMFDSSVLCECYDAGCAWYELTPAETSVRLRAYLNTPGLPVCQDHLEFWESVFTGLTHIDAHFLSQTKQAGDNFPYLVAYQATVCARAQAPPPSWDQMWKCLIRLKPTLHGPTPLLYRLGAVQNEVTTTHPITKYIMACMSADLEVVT

Int.* (Ratio) (Interference) [1] | Inh. (%) (Inhibition) (MBHA with DNA substrate) | Inh. (%) (Inhibition) (MBHA with a DNA substrate) | Int.* (Ratio) (Interference) [2] | SMILES
0.99 Ratio | −8.9% |  |  | O=c1[nH]c(=O)n(C2CCCO2)cc1F (stereo not shown) [Compound 148958]
1.08 Ratio | −8.4% |  |  | Clc1ccccc1C(c1ccccc1)(c1ccccc1)n1ccnc1 [Compound 257473]
 |  | 9.9% | 0.91 Ratio | Cn1cnc([N+](=O)[O-])c1Sc1nnc(-c2cccnc2)n1C [Compound 631160]
0.91 Ratio | 71.1% |  |  | CCNCCCCNCCCCNCCCCNCCCCNCC.Cl [Compound 640506]
0.96 Ratio | −9.7% |  |  | CCCCCCCCCCCCCCCCOCC(O)CO (stereo not shown) [Compound 59269]
0.97 Ratio | 3.2% |  |  | Cc1ccc(NC(=O)c2cc3ccccc3c(N=Nc3ccccc3O)c2O)c(C)c1 [Compound 374898]
1.02 Ratio | −18.3% |  |  | COc1ccc(C2C(C)C(=O)C(C)C(c3ccc(OC)cc3)N2N=O)cc1 (stereo not shown) [Compound 626734]
 |  | 9.4% | 0.93 Ratio | CC(C)=CCC(OC(=O)C=C(C)C)C1=CC(=O)c2c(O)ccc(O)c2C1=O (stereo not shown) [Compound 140377]
1.01 Ratio | 28.3% |  |  | CCN(CC)CCNC(=O)c1nn(-c2ccc(Cl)cc2)c2c1CCc1cc(OC)ccc1-2 [Compound 288010]
1.00 Ratio | −0.9% |  |  | Oc1ccc(-c2nc3ccccc3s2)cc1 [Compound 33004]
0.90 Ratio | 19.2% |  |  | Br.CCN(CC)CC(C)(C)C(=O)/C=C/c1ccc(C)cc1 [Compound 382766]
1.04 Ratio | 17.2% |  |  | CC1(C)C2CCC1(CS(=O)(=O)O)C(=O)C2.CN1C(c2ccccc2)CC(=NO)CC1c1ccccc1 (stereo not shown) [Compound 363744]
 |  | 7.3% | 0.45 Ratio | CCN(CC)Cc1cc(N=Nc2c(O)ccc3c(N=Nc4ccc(O)c(CN(CC)CC)c4)c(O)ccc23)ccc1O.Cl [Compound 359463]
 |  | −22.5% | 0.98 Ratio | N[C@@H](CSC(c1ccccc1)(c1ccccc1)c1ccccc1)C(=O)O [Compound 83265]
0.91 Ratio | −13.1% |  |  | O=C(NC1=C(Cl)C(=O)c2ccccc2C1=O)C(=O)C(C(=O)c1ccc2ccccc2c1)C1OC(=O)c2ccccc21 (stereo not shown) [Compound 641233]
0.89 Ratio | 23.2% |  |  | O=[N+]([O-])c1ccccc1S(=O)(=O)c1ccccc1[N+](=O)[O-] [Compound 633001]
1.01 Ratio | −9.2% |  |  | Cc1ccc2ccc3ccc(C)nc3c2n1 [Compound 4280]
0.99 Ratio | 3.1% |  |  | O=S(=O)(c1cccc(N=C=S)c1)c1cccc(N=C=S)c1 [Compound 140911]
 |  | −5.7% | 0.91 Ratio | COc1ccc(/C=C/c2cc(OC)c(OC)c(OC)c2)cc1OP(=O)(O)O [Compound 643812]
0.92 Ratio | −9.7% |  |  | Nc1ccc2nc3ccc(=O)cc-3n(-c3ccccc3)c2c1 [Compound 31702]
0.88 Ratio | −7.6% |  |  | Cc1c2cnccc2c(C)c2c1c1ccccc1n2CCOC(=O)c1ccccc1 [Compound 163443]
0.95 Ratio | −13.8% |  |  | CN1c2c(nc(N)[nH]c2=O)NCC1CCNc1ccc(C(=O)N[C@@H](CCC(=O)[O-])C(=O)[O-])cc1.[Na+].[Na+] (stereo partly shown) [Compound 139490]

More lines, now with the values behind:

SMILES | Int.* (Ratio) (Interference) [1] | Inh. (%) (Inhibition) (MBHA with DNA substrate) | Inh. (%) (Inhibition) (MBHA with a DNA substrate) | Int.* (Ratio) (Interference) [2]
Cc1nc(Cl)c(C)c(Cl)n1 [Compound 40212] | 0.95 Ratio | 1.1% |  | 
COc1cc(OC)c(OC)cc1/C=C/c1ccnc2ccccc12 [Compound 80756] | 0.97 Ratio | 1.2% |  | 
C[CH2][Ge]([CH2]C)([CH2]C)[O]C(=O)CCC(=O)[O][Ge]([CH2]C)([CH2]C)[CH2]C [Compound 653558] |  |  | −3.1% | 0.98 Ratio
CC(C)(O)C=CC(=O)C(C)(O)C1C(O)CC2(C)C3CC=C4C(C=C(O)C(=O)C4(C)C)C3(C)C(=O)CC12C (stereo not shown) [Compound 521777] | 0.90 Ratio | 5.8% |  | 
O=C(CCCN1CCC(C(O)c2ccc(F)cc2)CC1)c1ccc(F)cc1 (stereo not shown) [Compound 343513] | 0.91 Ratio | −8.7% |  | 
[Cl][Hg][c]1ccc2ccccc2c1 [Compound 174163] | 1.00 Ratio | −18.5% |  | 
CC(=O)OC1C(O)C(C)OC(OC2C(OC(=O)C3CCC4C(C3)OC3(CC(OC(=O)/C=C/c5ccccc5)C(C)CO3)C43CO3)OC(C)C(O)C2OC(C)=O)C1O (stereo not shown) [Compound 328426] |  |  | −3.0% | 1.00 Ratio
O=C(c1ccccc1)C(c1ccccc1)C1(O)C(=O)Nc2c(Cl)cc(Cl)cc21 (stereo not shown) [Compound 635312] | 0.93 Ratio | −18.1% |  | 
CC(C)(C)c1ccc(O)c(CN(Cc2cc(C(C)(C)C)ccc2O)C2CCCCC2)c1 [Compound 48151] | 0.98 Ratio | 2.1% |  | 
CN(C)CCCN1c2ccccc2Sc2ccc3ccccc3c21 [Compound 18891] |  |  | −4.0% | 0.89 Ratio
N.N.[Cl][Pt][Cl] [Compound 119875] | 0.83 Ratio | 25.1% |  | 
O=C(CC1(O)C(=O)Nc2c(Cl)ccc(Cl)c21)c1ccc(Cl)cc1Cl (stereo not shown) [Compound 635436] | 0.89 Ratio | 15.6% |  | 
COc1ccc(/C=C/c2cc(O)cc(O[C@@H]3O[C@H](CO)[C@@H](O)[C@H](O)[C@H]3O)c2)cc1O [Compound 43321] |  |  | −28.3% | 1.07 Ratio
CN(C)CCCCN1CCc2c(n(C)c3ccccc23)C1=O [Compound 658388] | 1.09 Ratio | −18.7% |  | 
CC(=O)N=C1N(/C=C2\C(=O)Oc3ccccc3C2=O)C(=O)/C(=C/c2ccccc2Cl)N1C [Compound 658494] | 0.95 Ratio | 6.7% |  | 
CCP(CC)CC.[Au+].[Cl-] [Compound 313981] |  |  | −3.8% | 0.93 Ratio

SMILES | Int.* (Ratio) (Interference) [1] | Inh. (%) (Inhibition) (MBHA with DNA substrate) | Inh. (%) (Inhibition) (MBHA with a DNA substrate) | Int.* (Ratio) (Interference) [2]
CC1OC(O[C@@H]2C=C3CC[C@@H]4[C@H](CC[C@]5(C)[C@@H](c6ccc(=O)oc6)CC[C@]45O)[C@@]3(C)CC2)C(O)C(O)C1O (stereo partly shown) [Compound 7521] | 0.94 Ratio | 5.5% |  | 
COc1cc(OC)c2c(C)cc(=O)oc2c1 [Compound 688795] |  |  | 9.3% | 1.02 Ratio
C[C@H]1O[C@@H](c2ccc3c(c2O)C(=O)C2=C(C3=O)[C@@]3(O)C(=O)C[C@](C)(O)C[C@@]3(O)C=C2)C[C@@H](O)[C@@H]1O [Compound 184398] |  |  | −39.0% | 1.09 Ratio
Cl.O=C1C=CC(=O)c2c(O)c(N3CCN(CCOCCO)CC3)c(Br)c(O)c21 [Compound 659999] | 0.44 Ratio | 6.1% |  | 
Cc1cccc(NC(=O)/C=C/c2ccc([N+](=O)[O-])cc2)c1 [Compound 139109] | 1.06 Ratio | −1.2% |  | 
CCOC(=O)C1=C(O)CSC1=Nc1ccc(N=C2SCC(O)=C2C(=O)OCC)cc1 [Compound 623746] |  |  | −29.6% | 0.99 Ratio
COc1cc(NS(C)(=O)=O)ccc1Nc1c2ccccc2nc2ccccc12 [Compound 249992] | 1.08 Ratio | 3.0% |  | 
CC1=C(N2CC2)C(=O)c2nc3n(c2C1=O)CCC3OC(=O)CCl (stereo not shown) [Compound 651080] |  |  | −4.4% | 0.85 Ratio
CC(C)C(NC(=O)C(C(C)C)N(C)C)C(=O)N(C)C(C(=O)N1CCCC1C(=O)N1CCCC1C(=O)NCc1ccccc1)C(C)C.Cl (stereo not shown) [Compound 669356] (ξNMe2Val-V[NMeV]PP-NHBn; configuration not given here) | 1.08 Ratio | −9.2% |  | 
O=C(NCCCCCCCCNC(=O)c1cccc2ccccc12)c1cccc2ccccc12 [Compound 629738] | 0.97 Ratio | 5.9% |  | 
CC1(C)O[C@@H]2C[C@H]3[C@@H]4C[C@H](F)C5=CC(=O)C=C[C@]5(C)[C@@]4(F)[C@@H](O)C[C@]3(C)[C@]2(C(=O)CO)O1 [Compound 92339] | 1.04 Ratio | −1.6% |  | 
CC12CCC(O)CC1CCC1C2CCC2(C)C(C3=CC(=O)OC3)CCC12O (stereo not shown) [Compound 407806] | 1.00 Ratio | −11.1% |  | 
Cc1ccc(NC(=O)/C=C/c2ccccc2)c(C)c1 [Compound 191389] | 1.06 Ratio | −2.3% |  | 
CC1(C)CC2=NO[Se]3=C2C(=NO3)C1 [Compound 328587] | 0.95 Ratio | −1.3% |  | 
CN(C)C(=S)/N=c1\ss/c(=N\C(=S)N(C)C)n1-c1ccc2c(c1)OCO2 [Compound 622589] |  |  | −21.0% | 0.94 Ratio

Source: patent US9464064B2, “HCV helicase inhibitors and methods of use thereof” (University of Kansas, priority 2011, dated 2016)
